Literature values in patent US20160120870A1, “THE PROCESS FOR THE PREPARATION OF A PHARMACEUTICAL COMPOSITION COMPRISING RIVAROXABAN” (SANDOZ AG, priority 2013, published 2016).

Details: background prior art, drug substance

water solubility: relatively poor
Compound: O=C(NC[C@H]1CN(c2ccc(N3CCOCC3=O)cc2)C(=O)O1)c1ccc(Cl)s1 [Rivaroxaban, (S)-5-chloro-N-{[2-oxo-3-[4-(3-oxomorpholin-4-yl)phenyl]oxazolidin-5-yl]methyl}thiophene-2-carboxamide]
